Literature values in publication PMC4860896 (Theranostics, 2016).

## OCC1[C@H]2CC/C=C/CC[C@@H]12 (stereo partly drawn) [compound 4, (1R,8S,E)-bicyclo[6.1.0]non-4-en-9-ylmethanol]
At 25 °C in water, prior study
  rate constant of reaction of sTCO with diphenyl-s-tetrazine derivatives: up to 2.86 x 10^5 M^-1s^-1
Room temperature conjugations in water, listed as sTCO
  rate constant of tetrazine ligation, fastest measured: ≤ 3.3e+06 M⁻¹ s⁻¹
